From patent publication US11560395B2, “Azithromycin derivatives containing a phosphonium ion as anticancer agents” (Rising Tide Foundation, priority 2017, dated 2023)

System: MDA-231 cancer cells
Assay: Inhibition of proliferation assay, cell confluence (IncuCyte live cell imaging)
Type: cell-based
Details: MDA-231 cells, concentration 10 uM; relative confluence normalised to time zero, images every 3 h over 4-5 d
Description: Inhibition of Proliferation Assay Cell Confluence The confluence value is a surrogate for cell proliferation and growth. The value is expressed as a percent confluence, which represents the fraction of culture dish-surface that is occupied by cells. As the number of cells in the dish increases over time due to proliferation, so will their coverage of that surface increase. Expansion of the cell population on the cell culture-dish surface and confluence have mostly a linear relationship until the cells on the plate surface begin to reach saturation or maximum density. Confluence is determined based on image analysis. Image based software can identify objects in the image field base on changes to pixel density in a grey scale image. The software can then assign a mask to those pixels within the object. Objects can be ‘gated’ out based on size and shape. To determine cell confluence, images of cells are first masked as objects. The surface area of the image that is masked is measured and compared to the total surface area of the culture dish surface to obtain a percent confluence. MDA-231 cancer cells were obtained from ATCC. Cells were cultured in Dulbecco's Modified Eagle Medium (DMEM) supplemented with 10% Fetal Bovine Serum (FBS), 2 mM Glutamax, 1 mM Non Essential Amino Acid (NEAA) solution and 1 mM sodium pyruvate. Compounds were dissolved in DMSO at 10 mM and diluted in cellular medium and tested at 10 μM (micromolar). Final DMSO concentrations were <0.1%. Images were acquired with an IncuCyte Live Cell Imaging microscopy (Essen Bioscience) at every 3 h under cell culture conditions with 10× objective over 4-5 d. Cell confluence was calculated from one field of view per well using the IncuCyte in-built algorithm. Relative confluence values were obtained by normalising each value to the time zero value in each sample.

Compound | % Confluence
CC[C@H]1OC(=O)[C@H](C)[C@@H](O[C@H]2C[C@@](C)(OC)[C@@H](O)[C@H](C)O2)[C@H](C)[C@@H](O[C@@H]2O[C@H](C)C[C@H](N(C)C)[C@H]2O)[C@](C)(O)C[C@@H](C)CN(C(=O)CCOCCOCC[P+](c2ccccc2)(c2ccccc2)c2ccccc2)[C@H](C)[C@@H](O)[C@]1(C)O.[Br-] [Example 23, [2-(2-{3-[(2R,3S,4R,5R,8R,10R,11R,12S,13S,14R)-11-{[(2S,3R,4S,6R)-4-(dimethylamino)-3-hydroxy-6-methyloxan-2-yl]oxy}-2-ethyl-3,4,10-trihydroxy-13-{[(2R,4R,5S,6S)-5-hydroxy-4-methoxy-4,6-dimethyloxan-2-yl]oxy}-3,5,6,8,10,12,14-hexamethyl-15-oxo-1-oxa-6-azacyclopentadecan-6-yl]-3-oxopropoxy}ethoxy)ethyl]triphenylphosphonium bromide] | 118%
CC[C@H]1OC(=O)[C@H](C)[C@@H](O[C@H]2C[C@@](C)(OC)[C@@H](O)[C@H](C)O2)[C@H](C)[C@@H](O[C@@H]2O[C@H](C)C[C@H](N(C)C)[C@H]2O)[C@](C)(O)C[C@@H](C)CN(C(=O)CCCCN(C)CC[P+](c2ccccc2)(c2ccccc2)c2ccccc2)[C@H](C)[C@@H](O)[C@]1(C)O.[Br-] [Example 24, [2-({5-[(2R,3S,4R,5R,8R,10R,11R,12S,13S,14R)-11-{[(2S,3R,4S,6R)-4-(dimethylamino)-3-hydroxy-6-methyloxan-2-yl]oxy}-2-ethyl-3,4,10-trihydroxy-13-{[(2R,4R,5S,6S)-5-hydroxy-4-methoxy-4,6-dimethyloxan-2-yl]oxy}-3,5,6,8,10,12,14-hexamethyl-15-oxo-1-oxa-6-azacyclopentadecan-6-yl]-5-oxopentyl}(methyl)amino)ethyl]triphenylphosphonium bromide] | 49.1%
CC[C@H]1OC(=O)[C@H](C)[C@@H](O[C@H]2C[C@@](C)(OC)[C@@H](O)[C@H](C)O2)[C@H](C)[C@@H](O[C@@H]2O[C@H](C)C[C@H](N(C)C)[C@H]2O)[C@](C)(O)C[C@@H](C)CN(C(=O)CCCCCCCCCC[P+](c2ccccc2)(c2ccccc2)c2ccccc2)[C@H](C)[C@@H](O)[C@]1(C)O.[Cl-] [Example 25, {11-[(2R,3S,4R,5R,8R,10R,11R,12S,13S,14R)-11-{[(2S,3R,4S,6R)-4-(dimethylamino)-3-hydroxy-6-methyloxan-2-yl]oxy}-2-ethyl-3,4,10-trihydroxy-13-{[(2R,4R,5S,6S)-5-hydroxy-4-methoxy-4,6-dimethyloxan-2-yl]oxy}-3,5,8,10,12,14-hexamethyl-15-oxo-1-oxa-6-azacyclopentadecan-6-yl]-11-oxoundecyl}triphenylphosphonium chloride] | 4.4%
